Some test systems named below: SF-295 CNS; CCRF-CEM leukemia; HCC-2998 colon; RXF 393 renal; RPMI-8226 leukemia; NCI-H23 lung; UO-31 renal; MDA-N; K-562 leukemia; SNB-75 CNS; SK-OV-3 ovarian; SK-MEL-28 melanoma; HOP-92 NSCLC; SNB-19 CNS.
Common to all, as to test: DTP human tumour cell line panel, 48 h

Each structure is given as a SMILES string.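 How tested: cells in 96-well plates exposed to compound for 48 hours at five concentrations. Definition used: TGI = concentration required for complete inhibition of growth.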

In general, TGI refers to the concentration giving total growth inhibition. A low value points to more potent growth arrest.

Take `COC1=CC(=O)c2c(O)ccc(O)c2C1=O`: the TGI amounted to 4.35 µM in the experiment on SF-295 CNS; 43.6 µM in the experiment with CCRF-CEM leukemia; 9.33 µM in the experiment on HCC-2998 colon; 31.3 µM in the experiment on RXF 393 renal; 38.2 µM in the experiment on RPMI-8226 leukemia; 9.32 µM with NCI-H23 lung. Besides, the TGI with UO-31 renal was 34.9 µM; in the experiment with MDA-N, 1.9 µM; in the experiment on K-562 leukemia, above 100 µM; in the experiment with SNB-75 CNS it was 3.65 µM; in the experiment on SK-OV-3 ovarian, 33 µM; with SK-MEL-28 melanoma, 3.71 µM. Also, the figures for the TGI with HOP-92 NSCLC and with SNB-19 CNS were 33 µM and 18.8 µM, respectively.

For `CC(C)/C(Cl)=N\OC(=O)Nc1ccc(F)c([N+](=O)[O-])c1`, the TGI in the experiment with SF-295 CNS is 37.9 µM; in the experiment with HCC-2998 colon, above 100 µM; in the experiment on RXF 393 renal, 33 µM; in the experiment on RPMI-8226 leukemia, 4.87 µM; in the experiment with NCI-H23 lung it was 41.2 µM; in the experiment with UO-31 renal, 17.9 µM. Besides, the TGI is 29.4 µM in the experiment on MDA-N; above 100 µM in the experiment with K-562 leukemia; 27.2 µM in the experiment with SNB-75 CNS; 34 µM in the experiment with SK-OV-3 ovarian; 17.4 µM with SK-MEL-28 melanoma; 4.77 µM in the experiment on HOP-92 NSCLC. The TGI in the experiment on SNB-19 CNS stood at 30.6 µM.

With `O=C1N(CN2CCOCC2)CN(CN2CCOCC2)C(=O)N1Cc1ccccc1`, the TGI with SF-295 CNS is above 100 µM; with CCRF-CEM leukemia it was 75.8 µM; in the experiment with HCC-2998 colon, above 100 µM; with RXF 393 renal, 35.7 µM; in the experiment with RPMI-8226 leukemia it was 60.3 µM; with NCI-H23 lung, 38.9 µM. The TGI with UO-31 renal was 68.6 µM; in the experiment on MDA-N it was 33.3 µM; in the experiment on K-562 leukemia, 51.4 µM; with SNB-75 CNS, 72.5 µM; with SK-OV-3 ovarian, above 100 µM; with SK-MEL-28 melanoma it was 34.8 µM. In addition, the TGI with HOP-92 NSCLC was 73 µM; in the experiment on SNB-19 CNS, above 100 µM.

In the case of `O=C1NC(N/N=C/c2ccccc2)=N/C1=C\c1cccs1`, the TGI with SF-295 CNS is 34.6 µM; in the experiment with CCRF-CEM leukemia, above 75.8 µM; in the experiment on RXF 393 renal, 40.7 µM; with RPMI-8226 leukemia, above 41 µM; in the experiment with NCI-H23 lung, 40.7 µM; with UO-31 renal, 48.7 µM. Moreover, the TGI was above 25.2 µM with MDA-N; above 80.3 µM with K-562 leukemia; 51.8 µM in the experiment with SNB-75 CNS; 39.1 µM in the experiment with SK-OV-3 ovarian; 37.7 µM in the experiment with SK-MEL-28 melanoma; 32.4 µM in the experiment with HOP-92 NSCLC. The compound also showed a concentration for total growth inhibition (TGI) with SNB-19 CNS above 87.3 µM.

Consider `O=C(N/N=C/C=C/c1ccc([N+](=O)[O-])o1)c1ccc(Br)s1`, for which the TGI is above 100 µM in the experiment with SF-295 CNS; above 100 µM in the experiment on CCRF-CEM leukemia; 30.9 µM in the experiment on RXF 393 renal; 23.4 µM in the experiment on RPMI-8226 leukemia; 33.5 µM in the experiment with NCI-H23 lung; 48.9 µM in the experiment on UO-31 renal. In addition, the TGI was 56.7 µM with MDA-N; above 100 µM in the experiment on K-562 leukemia; above 100 µM in the experiment with SNB-75 CNS; above 100 µM in the experiment with SK-OV-3 ovarian; 52.3 µM in the experiment on SK-MEL-28 melanoma; 25.7 µM in the experiment on HOP-92 NSCLC. The compound further registered a TGI in the experiment with SNB-19 CNS of 78.9 µM.

As to `CCCN1CN(c2ccccc2)C2(CCN(CCCC(=O)c3ccc(F)cc3)CC2)C1=O`, the TGI in the experiment with SF-295 CNS was 24.8 µM; in the experiment on CCRF-CEM leukemia it was 5.16 µM; with HCC-2998 colon it was 20.8 µM; in the experiment on RXF 393 renal it was 37 µM; with RPMI-8226 leukemia, 42.2 µM; in the experiment with NCI-H23 lung, 17.3 µM. Moreover, the TGI is 30.2 µM in the experiment on UO-31 renal; 23 µM with MDA-N; above 58.4 µM in the experiment on K-562 leukemia; 47.5 µM in the experiment on SNB-75 CNS; 43.1 µM in the experiment on SK-OV-3 ovarian; 34.3 µM in the experiment on SK-MEL-28 melanoma. In addition, the TGI came out at 8.98 µM in the experiment with HOP-92 NSCLC and 34.7 µM in the experiment on SNB-19 CNS.

Consider `c1ccc2c(c1)CCN1CCc3c([nH]c4ccccc34)C21` (configuration not stated), for which the TGI in the experiment with SF-295 CNS is 57.4 µM; in the experiment on CCRF-CEM leukemia it was 95.5 µM; in the experiment on HCC-2998 colon it was 34 µM; in the experiment on RXF 393 renal it was 72.3 µM; in the experiment on RPMI-8226 leukemia it was 55.1 µM; in the experiment on NCI-H23 lung, above 100 µM. Besides, the TGI in the experiment with UO-31 renal was above 100 µM; in the experiment on MDA-N, 73.8 µM; in the experiment with K-562 leukemia it was 43.3 µM; with SNB-75 CNS, 79 µM; with SK-OV-3 ovarian it was above 100 µM; in the experiment on SK-MEL-28 melanoma, 48.8 µM. The TGI with HOP-92 NSCLC was 72.2 µM; with SNB-19 CNS, above 100 µM.

With `COc1ccc(C(=O)Cn2c(C(C)=O)nc3ccccc32)cc1`, the TGI is 80.6 µM in the experiment on SF-295 CNS; above 100 µM with CCRF-CEM leukemia; above 100 µM with HCC-2998 colon; above 100 µM in the experiment with RXF 393 renal; above 100 µM with RPMI-8226 leukemia; above 100 µM with NCI-H23 lung. Further, the TGI with UO-31 renal is above 57.3 µM; in the experiment on MDA-N it was above 100 µM; in the experiment on K-562 leukemia, above 100 µM; in the experiment with SNB-75 CNS it was above 100 µM; in the experiment with SK-OV-3 ovarian, above 100 µM; with SK-MEL-28 melanoma it was above 100 µM. Further, the TGI in the experiment on HOP-92 NSCLC and in the experiment with SNB-19 CNS was above 100 µM each time.

As to `O=C(O)CSc1nnc(CCCCCCCCc2nnc(SCC(=O)O)o2)o1`, the TGI in the experiment on SF-295 CNS, in the experiment with CCRF-CEM leukemia, in the experiment on HCC-2998 colon, in the experiment with RXF 393 renal, in the experiment with RPMI-8226 leukemia and with NCI-H23 lung was above 100 µM throughout. Moreover, the total growth inhibition concentration (TGI) in the experiment on UO-31 renal was above 100 µM; in the experiment on MDA-N, above 100 µM; in the experiment on K-562 leukemia it was above 100 µM; in the experiment with SNB-75 CNS it was 73.1 µM; in the experiment with SK-OV-3 ovarian, above 100 µM; with SK-MEL-28 melanoma it was above 100 µM. In addition, the TGI in the experiment on HOP-92 NSCLC and in the experiment with SNB-19 CNS was above 100 µM in each case.

Regarding `CC(C)CCNC(=O)c1ccc(CNC(=O)/C=C/c2csc(-c3ccccc3)n2)cc1`, the TGI with SF-295 CNS was above 100 µM; with CCRF-CEM leukemia, above 100 µM; in the experiment on HCC-2998 colon, above 100 µM; in the experiment on RXF 393 renal it was 73.6 µM; in the experiment on RPMI-8226 leukemia, above 100 µM; with NCI-H23 lung it was above 100 µM. Further, the TGI with UO-31 renal is 58.6 µM; in the experiment on MDA-N, above 100 µM; in the experiment on K-562 leukemia, above 100 µM; in the experiment with SNB-75 CNS, 41.8 µM; in the experiment with SK-OV-3 ovarian, above 100 µM; in the experiment on SK-MEL-28 melanoma it was above 100 µM. For the same compound, the TGI is above 100 µM in the experiment with HOP-92 NSCLC and 56.6 µM with SNB-19 CNS.

These data come from PubChem BioAssay (NCI).
